The assay concerns the target T1, Recombinant human DGAT2 protein (Homo sapiens, UniProt Q96PD7).
T1 construct: FLAG (DYKDDDDK); (N); made in house; host or cells: Sf-21 insect cells (BacPAK baculovirus system); used as a membrane preparation
T1 sequence (Q96PD7 1-388): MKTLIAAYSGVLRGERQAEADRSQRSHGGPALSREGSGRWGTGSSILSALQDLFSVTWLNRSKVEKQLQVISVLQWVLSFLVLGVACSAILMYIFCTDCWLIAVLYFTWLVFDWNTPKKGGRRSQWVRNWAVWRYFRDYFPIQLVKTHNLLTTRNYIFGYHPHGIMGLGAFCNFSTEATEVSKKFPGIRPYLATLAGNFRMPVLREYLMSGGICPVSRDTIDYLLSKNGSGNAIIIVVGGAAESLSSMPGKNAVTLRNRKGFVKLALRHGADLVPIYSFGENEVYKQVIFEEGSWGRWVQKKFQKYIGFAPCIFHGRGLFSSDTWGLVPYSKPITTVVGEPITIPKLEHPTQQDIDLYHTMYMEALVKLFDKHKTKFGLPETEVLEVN
The assay can be described thus: Measurement of inhibitory effect against DGAT2 enzyme activity (SPA, Phospholipid FlashPlate, [14C]-TG production). The format is biochemical. The note with it: concentration inhibiting [14C]-labeled triacyl glycerol (TG) production by 50%; 2 μg DGAT2-membrane protein from Sf-21 cells, 37° C. On the procedure: Experimental Example: Measurement of Inhibitory Effect Against DGAT2 Enzyme Activity
In order to prepare the pBacPAK9-DGAT2, which is DGAT2 expression vector, the human DGAT2 gene amplified by polymerase chain reaction (PCR) was cloned into the EcoR1 and Xho1 sites of the pBacPAK9 (clonctech) vector. The nucleotide sequence of the primers used in PCR was the forward primer 5′ […] and the reverse primer 5′ […]. The composition of the reaction solution was to contain 50 ng of cDNA clone (OriGene), 200 μM of dATP, dCTP, dTTP, dGTP, 200 nM of each primer, 1 unit of Tag DNA Polymerase (Toyobo), 1×PCR buffer, and the final volume was adjusted to 20 μl. The reaction conditions were denatured at 95° C. for 5 minutes, followed by 30 times of 94° C. for 20 seconds, 60° C. for 20 seconds, and 72° C. for 90 seconds, followed by further reaction at 72° C. for 7 minutes.
Recombinant human DGAT2 protein was expressed in Sf-21 cells, which are insect cells, by using the BacPack baculovirus expression system (Clontech). The brief manufacturing process is as follows. First, the pBacPAK9-DGAT2 expression vector was transfected with BacPAK6 virus DNA (Bsu36I digest) into sf21 cells using Bacfectin to prepare a recombinant DGAT2 expressing baculovirus. The thus prepared baculovirus was infected with Sf-21 cells at 10 MOI (multiplicity of infection), and after 72 hours, infected insect cells were collected and membrane proteins were isolated. For membrane protein separation, the cell pellet was dissolved in a sucrose solution containing 250 mM sucrose, 10 mM Tris (pH 7.4), and 1 mM ethylenediamine-tetraacetic acid (EDTA), and then homogenized by using a dounce homogenizer, and the supernatant was taken by centrifuging at 600×g for 15 minutes, and centrifuged at 100,000×g for 1 hour to discard the supernatant, and the remaining pellet was resuspended in 20 mM HEPES buffer (pH 7.4). The prepared DGAT2 overexpressing membrane protein was dispensed in 100 μl and stored at −80° C. until use. Protein concentration was quantified by using the BCA Protein Assay Kit (Thermo Scientific).
In vitro DGAT2 analysis was performed using a Phospholipid Flash Plate (PerkinElmer) based on the principle of SPA (Scintillation Proximity Assay). First, DGAT2 inhibition compounds serially diluted 5 times from 3 nM to 10 μM (final concentration, 1% DMSO) were mixed in a buffer solution containing 2 μg DGAT2-membrane protein and 20 mM HEPES, 20 mM MgCl2, 1 mg/mL BSA, 50 μM 1,2 sn-oleoyl glycerol (Sigma), put in a 96-well flash plate (FlashPlate) and reacted at 37° C. for 20 minutes, and then 1 μM [14C] ole oil CoA (PerkinElmer, NEC651050UC) was added to be a final volume of 100 μL and further reacted at 37° C. for 15 minutes. After the enzymatic reaction was completed, 100 μL of isopropanol was added, the plate was sealed with a film, and the plate was shaken slowly in a plate shaker. The next day, the amplified scintillation signal (cpm) in Topcounter (Packard) was measured to measure the degree of production of [14C]-labeled triacyl glycerol (TG) as a reaction product. The measured value when the compound was not treated was used as a positive control, and the measured value of the compound treated group was calculated as a relative % to measure the inhibition effect of the compound on TG production.

SMILES strings stand for the structures.

`CCOc1ccccc1O[C@@H]1CCCN(c2cncc(NC(=O)CCc3ccc(C(=O)O)c(C)c3)n2)C1` [Example 45, (R)-4-(3-((6-(3-(2-ethoxyphenoxy)piperidin-1-yl)pyrazin-2-yl)amino)-3-oxopropyl)-2-methylbenzoic acid]: the 50% inhibitory concentration (IC50) – broadly, the concentration needed to halve the response being measured – came to 150 nM.
Regarding `CCOc1ccccc1O[C@@H]1CCCN(c2cncc(NC(=O)CCc3ccc(C(=O)O)c(OC)c3)n2)C1` [Example 46, (R)-4-(3-((6-(3-(2-ethoxyphenoxy)piperidin-1-yl)pyrazin-2-yl)amino)-3-oxopropyl)-2-methoxybenzoic acid], the IC50 was found to be 510 nM.
To `CCOc1ccccc1O[C@@H]1CCCN(c2cncc(NC(=O)CCc3ccc(C(=O)O)c(Cl)c3)n2)C1` [Example 47, (R)-2-chloro-4-(3-((6-(3-(2-ethoxyphenoxy)piperidin-1-yl)pyrazin-2-yl)amino)-3-oxopropyl)benzoic acid] belongs 310 nM.
With `CCOc1ccccc1O[C@@H]1CCCN(c2cncc(NC(=O)CCc3cccc(C(=O)O)c3)n2)C1` [Example 48, (R)-3-(3-((6-(3-(2-ethoxyphenoxy)piperidin-1-yl)pyrazin-2-yl)amino)-3-oxopropyl)benzoic acid], the half-maximal inhibitory concentration (IC50) stood at 710 nM.
To `CCOc1ccccc1O[C@@H]1CCCN(c2cncc(NC(=O)CCc3ccc(CC(=O)O)cc3)n2)C1` [Example 49, (R)-2-(4-(3-((6-(3-(2-ethoxyphenoxy)piperidin-1-yl)pyrazin-2-yl)amino)-3-oxopropyl)phenyl)acetic acid] belongs 100 nM.
`CCOc1ccccc1O[C@@H]1CCCN(c2cncc(NC(=O)CCc3ccc(CC(N)=O)cc3)n2)C1` [Example 50]: the IC50 is 9.6 nM.
The same measure for `CCOc1ccccc1O[C@@H]1CCCN(c2cncc(NC(=O)CCc3ccc(C(C)(C)C(=O)O)cc3)n2)C1` [Example 51, (R)-2-(4-(3-((6-(3-(2-ethoxyphenoxy)piperidin-1-yl)pyrazin-2-yl)amino)-3-oxopropyl)phenyl)-2-methylpropanoic acid]: 33 nM.
Consider `CCOc1ccccc1O[C@@H]1CCCN(c2cncc(NC(=O)CCc3ccc(C4(C(=O)O)CC4)cc3)n2)C1` [Example 52, (R)-1-(4-(3-((6-(3-(2-ethoxyphenoxy)piperidin-1-yl)pyrazin-2-yl)amino)-3-oxopropyl)phenyl)cyclopropane-1-carboxylic acid], for which the concentration for half-maximal inhibition (IC50) stood at 66 nM.
The same measure for `CCOc1ccccc1O[C@@H]1CCCN(c2cncc(NC(=O)CCc3cc(F)c(C(=O)O)c(F)c3)n2)C1` [Example 53, (R)-4-(3-((6-(3-(2-ethoxyphenoxy)piperidin-1-yl)pyrazin-2-yl)amino)-3-oxopropyl)-2,6-difluorobenzoic acid]: 390 nM; for `CCOc1ccccc1O[C@@H]1CCCN(c2cncc(NC(=O)CCc3cc(Cl)c(C(=O)O)c(Cl)c3)n2)C1` [Example 54, (R)-2,6-dichloro-4-(3-((6-(3-(2-ethoxyphenoxy)piperidin-1-yl)pyrazin-2-yl)amino)-3-oxopropyl)benzoic acid]: 88 nM.
As to `CCOc1ccccc1O[C@@H]1CCCN(c2cncc(NC(=O)CCc3cc(C)c(C(=O)O)c(C)c3)n2)C1` [Example 55, (R)-4-(3-((6-(3-(2-ethoxyphenoxy)piperidin-1-yl)pyrazin-2-yl)amino)-3-oxopropyl)-2,6-dimethylbenzoic acid], the IC50 turned out to be 280 nM.
As to `CCOc1ccccc1O[C@@H]1CCCN(c2cncc(NC(=O)CCc3ccc(N4CCC(C(=O)O)CC4)cc3)n2)C1` [Example 56, (R)-1-(4-(3-((6-(3-(2-ethoxyphenoxy)piperidin-1-yl)pyrazin-2-yl)amino)-3-oxopropyl)phenyl)piperidine-4-carboxylic acid], the half-maximal inhibitory concentration (IC50) was 820 nM.
Regarding `CCOc1ccccc1O[C@@H]1CCCN(c2cncc(NC(=O)c3cc(F)c(N4CCC(C(=O)O)CC4)c(F)c3)n2)C1` [Example 57], the IC50 amounted to 5300 nM.
To `CCOc1ccccc1O[C@@H]1CCCN(c2cncc(NC(=O)c3cc(F)c(N4CCC(CC(=O)O)CC4)c(F)c3)n2)C1` [Example 58] belongs 7500 nM; to `CCOc1ccccc1O[C@@H]1CCCN(c2cncc(NC(=O)C3CCN(c4ccc(C(=O)O)cc4)CC3)n2)C1` [Example 59, (R)-4-(4-((6-(3-(2-ethoxyphenoxy)piperidin-1-yl)pyrazin-2-yl)carbamoyl)piperidin-1-yl)benzoic acid], 1000 nM; to `CCOc1ccccc1O[C@@H]1CCCN(c2cncc(NC(=O)CCc3ccc(OC(C)(C)C(=O)O)cc3)n2)C1` [Example 60, (R)-2-(4-(3-((6-(3-(2-ethoxyphenoxy)piperidin-1-yl)pyrazin-2-yl)amino)-3-oxopropyl)phenoxy)-2-methylpropanoic acid], 420 nM.
For the compound `CCOc1ccccc1O[C@@H]1CCCN(c2cncc(NC(=O)CCc3ccc(CCC(=O)O)cc3)n2)C1` [Example 61, (R)-3-(4-(3-((6-(3-(2-ethoxyphenoxy)piperidin-1-yl)pyrazin-2-yl)amino)-3-oxopropyl)phenyl)propanoic acid], the half-inhibitory concentration (IC50) was determined as 150 nM.
On to `CCOc1ccccc1O[C@@H]1CCCN(c2cncc(NC(=O)c3ccc(Oc4ccc(C(=O)O)cc4)cc3)n2)C1` [Example 62, (R)-4-(4-((6-(3-(2-ethoxyphenoxy)piperidin-1-yl)pyrazin-2-yl)carbamoyl)phenoxy)benzoic acid], for which the half-inhibitory concentration (IC50) came out at 2100 nM.
The same measure for `CCOc1ccccc1O[C@@H]1CCCN(c2cncc(NC(=O)Cc3ccc(C[C@@H](C)C(=O)O)cc3)n2)C1` [Example 63]: 140 nM; for `CCOc1ccccc1O[C@@H]1CCCN(c2cncc(NC(=O)Cc3ccc(C[C@H](C)C(=O)O)cc3)n2)C1` [Example 64]: 120 nM.
Turning to `CCOc1ccccc1O[C@@H]1CCCN(c2cccc(NC(=O)Cc3ccc(CC(=O)O)cc3)n2)C1` [Example 66, (R)-2-(4-(2-((6-(3-(2-ethoxyphenoxy)piperidin-1-yl)pyridin-2-yl)amino)-2-oxoethyl)phenyl)acetic acid], the IC50 was determined as 2700 nM.
To `CCOc1ccccc1O[C@@H]1CCCN(c2cncc(NC(=O)Nc3ccc(CC(=O)O)cc3)n2)C1` [Example 67, (R)-2-(4-(3-(6-(3-(2-ethoxyphenoxy)piperidin-1-yl)pyrazin-2-yl)ureido)phenyl)acetic acid] belongs 6100 nM; to `CCOc1ccccc1O[C@@H]1CCCN(c2cccc(NC(=O)Cc3ccc(C(C)(C)C(=O)O)cc3)n2)C1` [Example 68, (R)-2-(4-(2-((6-(3-(2-ethoxyphenoxy)piperidin-1-yl)pyridin-2-yl)amino)-2-oxoethyl)phenyl)-2-methylpropanoic acid], 630 nM.
`CCOc1ccccc1O[C@@H]1CCCN(c2cncc(NC(=O)Cc3ccc(C(C)(C)C(=O)O)cc3)n2)C1` [Example 69, (R)-2-(4-(2-((6-(3-(2-ethoxyphenoxy)piperidin-1-yl)pyrazin-2-yl)amino)-2-oxoethyl)phenyl)-2-methylpropanoic acid]: the half-maximal inhibitory concentration (IC50) amounted to 970 nM.
To `CCOc1ccccc1O[C@@H]1CCCN(c2cccc(NC(=O)CCc3ccc(C(C)(C)C(=O)O)cc3)n2)C1` [Example 70, (R)-2-(4-(3-((6-(3-(2-ethoxyphenoxy)piperidin-1-yl)pyridin-2-yl)amino)-3-oxopropyl)phenyl)-2-methylpropanoic acid] belongs 350 nM.

Source of the values: patent US12637440B2, “Amide derivative useful as diacylglycerol acyltransferase 2 inhibitor, and use thereof” (LG CHEM, LTD., priority 2019, dated 2026).
